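In this assay, cells in 96-well plates receive the compound at five concentrations for 48 hours. Endpoints are linearly interpolated between the surrounding concentrations. At the GI50, growth is halved.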 Active and inactive are the calls of the source. No stated cut-off is given here; in the data, active = GI50 up to about 1.1 µM and inactive = higher.
How the values were obtained:
Experiment in all cases: inhibition of tumour cell growth, NCI panel, 48 h
786-0 = system: 786-0
CAKI-1 = system: CAKI-1
DU-145 = system: DU-145
HCC 2998 = system: HCC 2998
HCT-116 = system: HCT-116
MDA-MB-231 = system: MDA-MB-231
MOLT-4 = system: MOLT-4
Malme-3M = system: Malme-3M
NCI/ADR-RES = system: NCI/ADR-RES
OVCAR-4 = system: OVCAR-4
OVCAR-5 = system: OVCAR-5
RPMI-8226 = system: RPMI-8226
RXF 393 = system: RXF 393
SF-295 = system: SF-295
SF-539 = system: SF-539
UACC-62 = system: UACC-62
NCI-H522 = system: NCI-H522
PC-3 = system: PC-3

Compound	GI50 (786-0)	GI50 (CAKI-1)	GI50 (DU-145)	GI50 (HCC 2998)	GI50 (HCT-116)	GI50 (MDA-MB-231)	GI50 (MOLT-4)	GI50 (Malme-3M)	GI50 (NCI/ADR-RES)	GI50 (OVCAR-4)	GI50 (OVCAR-5)	GI50 (RPMI-8226)	GI50 (RXF 393)	GI50 (SF-295)	GI50 (SF-539)	GI50 (UACC-62)	GI50 (NCI-H522)	GI50 (PC-3)
CC1=C(c2ccc(C)cc2)NC(=S)C(C)C(c2ccc(C)cc2)=N1 (stereo unspecified)	> 100 µM (inactive)	> 100 µM (inactive)	> 100 µM (inactive)	89.3 µM (inactive)	58.5 µM (inactive)	> 100 µM (inactive)	32.8 µM (inactive)	59 µM (inactive)	> 100 µM (inactive)	> 100 µM (inactive)	> 100 µM (inactive)	40.6 µM (inactive)	14.7 µM (inactive)	67.6 µM (inactive)	92.5 µM (inactive)	89.7 µM (inactive)		
COc1cc(C=C2C(C)=NN(c3cccc(Cl)c3)C23C(Cl)C(=O)N3c2nc3ccccc3s2)ccc1O (stereo unspecified)	19.8 µM (inactive)	26.3 µM (inactive)	21.9 µM (inactive)	2.56 µM (inactive)	19.9 µM (inactive)	4.08 µM (inactive)	0.461 µM (active)		38.8 µM (inactive)	28.5 µM (inactive)	20.7 µM (inactive)	7.26 µM (inactive)	13.5 µM (inactive)	37.1 µM (inactive)	35.4 µM (inactive)		3.5 µM (inactive)	14.9 µM (inactive)
CCOC(=O)CCc1c(C(=O)OCC)[nH]c(/C=C2/NC(=O)C(C)=C2CC)c1C	15.8 µM (inactive)	21.2 µM (inactive)	16.9 µM (inactive)		13.1 µM (inactive)	13.6 µM (inactive)	0.0224 µM (active)	13 µM (inactive)	10.4 µM (inactive)	2.9 µM (inactive)	29.5 µM (inactive)		11.1 µM (inactive)	11.6 µM (inactive)	19.5 µM (inactive)	4.9 µM (inactive)	11.7 µM (inactive)	22.1 µM (inactive)
Cc1cc2[n-][n+]3ncc(-c4ccccc4)n3c2cc1[N+](=O)[O-]	> 100 µM (inactive)	> 100 µM (inactive)	> 100 µM (inactive)		> 100 µM (inactive)	> 100 µM (inactive)	> 100 µM (inactive)			> 100 µM (inactive)	> 100 µM (inactive)	> 100 µM (inactive)	> 100 µM (inactive)	> 100 µM (inactive)	> 100 µM (inactive)	> 100 µM (inactive)	> 100 µM (inactive)	> 100 µM (inactive)
C=CCOn1c(C=C)nc2ccc(C)cc21	14 µM (inactive)	20.4 µM (inactive)		18.5 µM (inactive)	12.1 µM (inactive)	16.7 µM (inactive)	8.18 µM (inactive)	18 µM (inactive)	25.9 µM (inactive)	29.3 µM (inactive)	18.4 µM (inactive)	2.95 µM (inactive)		25.6 µM (inactive)		13.6 µM (inactive)	15.5 µM (inactive)	12.9 µM (inactive)
O=C(CN1CCN(c2ccccc2)CC1)c1ccc2[nH]c(=O)oc2c1	> 100 µM (inactive)	> 100 µM (inactive)	> 100 µM (inactive)		> 100 µM (inactive)	83.4 µM (inactive)	> 100 µM (inactive)	> 100 µM (inactive)	49.5 µM (inactive)		> 100 µM (inactive)	> 100 µM (inactive)	> 100 µM (inactive)	> 100 µM (inactive)	36.5 µM (inactive)	> 100 µM (inactive)		> 100 µM (inactive)
COc1cccc(C2c3cc4c(cc3OC(NNS(=O)(=O)c3ccc(C)cc3)C2C)OCO4)c1OC (stereo unspecified)	22.2 µM (inactive)	2.29 µM (inactive)	2.29 µM (inactive)	5.36 µM (inactive)	1.78 µM (inactive)	5.47 µM (inactive)	2.74 µM (inactive)	3.61 µM (inactive)			4.82 µM (inactive)	2.28 µM (inactive)	2.12 µM (inactive)	2.9 µM (inactive)	2.97 µM (inactive)	3.75 µM (inactive)	1.88 µM (inactive)	2.97 µM (inactive)
O=c1cc(NCc2ccncc2)[nH]c(=O)[nH]1	> 100 µM (inactive)	> 100 µM (inactive)		> 100 µM (inactive)	> 100 µM (inactive)	> 100 µM (inactive)	> 100 µM (inactive)	> 100 µM (inactive)	> 100 µM (inactive)	> 100 µM (inactive)	> 100 µM (inactive)	> 100 µM (inactive)	> 100 µM (inactive)	> 100 µM (inactive)	> 100 µM (inactive)	> 100 µM (inactive)	> 100 µM (inactive)	> 100 µM (inactive)
